According to patent US20260347372A1, “SMALL MOLECULE INHIBITORS OF KRAS G12D MUTANT” (MERCK SHARP & DOHME LLC, priority 2023, published 2026):

Columns and labels:
[1] = molecular target: T1, AsPC-1 cells (Homo sapiens, UniProt P01116, G12D); assay: Cellular phospho-ERK assay, AsPC-1 cells (KRAS G12D); format: cell-based; details: 2 hours, read-out: AsPC1 pERK IC50
T1 construct: p-ERK/total ERK AlphaSureFire read-out
Procedure, shortened: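 PANC08.13 or AsPC-1 cells (homozygous KRAS G12D) were seeded overnight, then treated for 2 h at 37 °C with a 10-point 1:3 titration from 30 μM. Lysates were assayed by AlphaLISA SureFire for p-ERK and total ERK. IC50 came from a 4-parameter fit of the p-ERK/total ERK ratio.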

[2] = molecular target: KRAS G12V (Homo sapiens, UniProt P01116, G12V); assay: SOS-catalyzed nucleotide exchange assay, KRAS G12V (Procedure A); format: biochemical; details: GNE
Procedure, shortened: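 Biotinylated KRAS G12V was loaded with Bodipy-GDP alongside Terbium-streptavidin to form a TR-FRET complex, which was preincubated with compounds for 60 minutes in 384-well plates. Human SOS protein and unlabeled GTP were then added for 90 minutes, giving final concentrations of 1.25 nM KRAS-G12V, 160 nM SOS and 3 mM GTP. The 520/495 nm emission ratio was read on an Envision.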

[3] = molecular target: KRAS G12D (Homo sapiens, UniProt P01116, G12D); assay: SOS-catalyzed nucleotide exchange assay, KRAS G12D (Procedure A); format: biochemical; details: guanine nucleotide exchange (GNE)
Procedure, shortened: (§1)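 Preformed TR-FRET complex of biotinylated KRAS (G12C carries C51S/C80L/C118S; others native sequence), Bodipy-GDP and Tb-streptavidin preincubated with compound 60 min at room temperature. Exchange started with human SOS plus 3 mM GTP for 60 min (G13D 30 min). Final RAS/SOS: G12C 3/40 nM; WT, G12D 1/40 nM; G13D 1.25/0 nM. 520/495 nm ratio normalised, fitted to four-parameter logistic.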

[4] = molecular target: KRAS WT (Homo sapiens, UniProt P01116); assay: SOS-catalyzed nucleotide exchange assay, KRAS WT (Procedure A); format: biochemical; details: GNE
Procedure, shortened: as §1

T1 sequence (P01116 1-188 isoform P01116-2 G12D): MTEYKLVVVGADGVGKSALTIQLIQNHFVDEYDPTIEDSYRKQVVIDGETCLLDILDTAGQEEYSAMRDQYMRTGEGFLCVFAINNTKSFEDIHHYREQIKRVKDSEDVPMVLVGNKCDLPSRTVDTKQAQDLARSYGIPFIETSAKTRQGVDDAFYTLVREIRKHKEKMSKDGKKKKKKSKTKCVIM
Chain of KRAS G12D (P01116 with tags, fused parts or gaps isoform P01116-2 G12D): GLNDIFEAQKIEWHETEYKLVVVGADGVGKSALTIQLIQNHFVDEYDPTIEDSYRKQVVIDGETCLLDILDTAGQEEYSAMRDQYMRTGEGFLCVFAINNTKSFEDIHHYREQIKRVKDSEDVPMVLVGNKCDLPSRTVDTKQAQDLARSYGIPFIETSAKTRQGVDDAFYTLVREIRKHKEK
Chain of KRAS WT (P01116 with tags, fused parts or gaps isoform P01116-2): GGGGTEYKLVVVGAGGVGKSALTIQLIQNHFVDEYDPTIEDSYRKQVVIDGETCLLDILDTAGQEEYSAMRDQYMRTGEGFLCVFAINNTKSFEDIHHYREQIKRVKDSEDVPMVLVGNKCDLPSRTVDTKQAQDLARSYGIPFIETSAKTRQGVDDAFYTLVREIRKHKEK
Chain of KRAS G12V (P01116 with tags, fused parts or gaps isoform P01116-2 G12V): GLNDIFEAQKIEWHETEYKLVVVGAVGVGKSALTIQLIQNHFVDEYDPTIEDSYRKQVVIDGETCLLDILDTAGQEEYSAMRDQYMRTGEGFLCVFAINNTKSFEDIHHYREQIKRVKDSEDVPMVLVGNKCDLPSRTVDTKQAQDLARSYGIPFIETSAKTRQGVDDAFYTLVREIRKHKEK

Row | Compound | IC50 [1] [µM] | IC50 [2] [µM] | IC50 [3] [µM] | IC50 [4] [µM]
1 | C#Cc1c(F)ccc2cc3[nH]ncc3c(-c3nccc4c3sc3nc(OC[C@]5(CN6CCC7(CCCCC7)CC6)CC5(F)F)nc(N5C[C@H]6CC[C@@H](C5)N6)c34)c12 [Ex-100, 2-(((R)-1-((3-azaspiro[5.5]undecan-3-yl)methyl)-2,2-difluorocyclopropyl)meth-oxy)-4-((1R,5S)-3,8-diazabicyclo[3.2.1]octan-3-yl)-8-(5-ethynyl-6-fluoro-1H-benzo[f]indazol-4-yl)pyrido [4′,3′:4,5]thie-no[2,3-d]pyrimidine] | 0.753 | > 11.1 | 0.00852 | > 11.1
2 | Cc1cc2[nH]ncc2c(-c2nccc3c2sc2nc(OCCN4CCOC4=O)nc(N4C[C@H]5CC[C@@H](C4)N5)c23)c1C(F)(F)F [Ex-40, 3-(2-((4-((1R,5S)-3,8-diazabicyclo[3.2.1]octan-3-yl)-8-(6-methyl-5-(trifluoromethyl)-1H-indazol-4-yl)pyrido[4′,3′:4,5]thieno[2,3-d]pyrimidin-2-yl)oxy)ethyl)oxazolidin-2-one] | > 30 | > 11.1 | 5.88 | > 11.1
3 | Cc1cc2[nH]ncc2c(-c2nccc3c2sc2nc(OC[C@@]45CCCN4C[C@H](F)C5)nc(N4C[C@@H]5CC[C@H]4CN5)c23)c1C(F)(F)F [Ex-75, 4-((1S,4S)-2,5-diazabicyclo[2.2.2]octan-2-yl)-2-(((2R,7aS)-2-fluorotetrahydro-1H-pyrrolizin-7a(5H)-yl)methoxy)-8-(6-methyl-5-(trifluoromethyl)-1H-indazol-4-yl)pyrido[4′,3′:4,5]thieno[2,3-d]pyrimidine] | 0.629 | > 11.1 | 0.0381 | 3.68
4 | F/C=C1\CN2CCC[C@@]2(COc2nc(N3C[C@H]4CC[C@@H](C3)N4)c3c(n2)C2(CC2)c2c-3ccnc2-c2c(C3CC3)c(Cl)cc3[nH]ncc23)C1 (single isomer, unassigned) [Ex-116] | 0.373 | 0.804 | 0.00338 | 0.772
5 | Cc1cc2[nH]ncc2c(-c2nccc3c2sc2nc(OCC4CCS4(=O)=O)nc(N4C[C@H]5CC[C@@H](C4)N5)c23)c1C(F)(F)F (stereo partly drawn) [Ex-31, 2-(((4-((1R,5S)-3,8-diazabicyclo[3.2.1]octan-3-yl)-8-(6-methyl-5-(trifluoromethyl)-1H-indazol-4-yl)pyrido[4′,3′:4,5]thieno[2,3-d]pyrimidin-2-yl)oxy)methyl)thietane 1,1-dioxide] | > 30 | > 11.1 | 7.79 | > 11.1

Stronger by IC50 [1], values ahead:

Row | IC50 [1] [µM] | IC50 [2] [µM] | IC50 [3] [µM] | IC50 [4] [µM] | Compound
6 | 0.362 | > 11.1 | 0.00692 | 6.36 | C#Cc1c(F)ccc2cc3[nH]ncc3c(-c3nccc4c3sc3nc(OC[C@]5(CN6CCC7(CCC7)CC6)CC5(F)F)nc(N5C[C@H]6CC[C@@H](C5)N6)c34)c12 [Ex-98, 2-(((R)-1-((7-azaspiro[3.5]nonan-7-yl)methyl)-2,2-difluorocyclopropyl)meth-oxy)-4-((1R,5S)-3,8-diazabicyclo[3.2.1]octan-3-yl)-8-(5-ethynyl-6-fluoro-1H-benzo[f]indazol-4-yl)pyrido[4′,3′:4,5]thie-no[2,3-d]pyrimidine]
7 | 0.21 | 3.13 | 0.003 | 1.29 | C#Cc1c(F)ccc2cc3[nH]ncc3c(-c3nccc4c3sc3nc(OC[C@@]56CCC7(CC7)N5C[C@H](F)C6)nc(N5C[C@H]6CC[C@@H](C5)N6)c34)c12 [Ex-97, 4-((1R,5S)-3,8-diazabicyclo[3.2.1]octan-3-yl)-8-(5-ethynyl-6-fluoro-1H-benzo[f]indazol-4-yl)-2-(((6′R,7a′S)-6′-fluorotetrahydrospiro[cy-clopropane-1,3′-pyrrolizin]-7a′(5'H)-yl)methoxy)pyrido[4′, 3′:4,5]thieno[2,3-d]pyrimidine]
8 | 0.18 | 6.76 | 0.00529 | 2.8 | C#Cc1c(F)ccc2cc3[nH]ncc3c(-c3nccc4c3sc3nc(OCC5(CN(C)C)COC5)nc(N5C[C@H]6CC[C@@H](C5)N6)c34)c12 [Ex-95, 1-(3-(((4-((1R,5S)-3,8-diazabicyclo[3.2.1]octan-3-yl)-8-(5-ethynyl-6-fluoro-1H-benzo[f]indazol-4-yl)pyrido[4′,3′:4,5]thie-no[2,3-d]pyrimidin-2-yl)oxy)methyl)oxetan-3-yl)-N,N-dimethylmethanamine]
9 | 0.097 | 0.0377 | 0.00181 | 0.0362 | C#Cc1c(F)ccc2cc3[nH]ncc3c(-c3nccc4c3sc3nc(OC[C@@]56CCCN5C/C(=C\F)C6)nc(N5C[C@@H]6C[C@H](O)[C@H](C5)N6)c34)c12 [Ex-114, (1S,5S,6S)-3-(8-(5-ethynyl-6-fluoro-1H-benzo[f]indazol-4-yl)-2-(((S,Z)-2-(fluoromethylene)tetrahydro-1H-pyrrolizin-7a(5H)-yl)methoxy)pyrido[4′,3′:4,5]thieno[2,3-d]pyrimidin-4-yl)-3,8-diazabicyclo[3.2.1]octan-6-ol]
10 | 0.0863 | 0.412 | 0.00358 | 0.467 | CCc1c(F)ccc2cc3[nH]ncc3c(-c3nccc4c3sc3nc(OC[C@@]56CCCN5C[C@H](F)C6)nc(N5C[C@H]6CC[C@@H](C5)N6)c34)c12 [Ex-87, 4-((1R,5S)-3,8-diazabicyclo[3.2.1]octan-3-yl)-8-(5-ethyl-6-fluoro-1H-benzo[f]indazol-4-yl)-2-(((2R,7aS)-2-fluorotetrahydro-1H-pyrrolizin-7a(5H)-yl)methoxy)pyrido[4′,3′:4,5]thieno[2,3-d]pyrimidine]
11 | 0.0484 | 0.631 | 0.00194 | 0.399 | C#Cc1c(F)ccc2cc3[nH]ncc3c(-c3nccc4c3sc3nc(OC[C@]5(CN6CC7(CCOC7)C6)CC5(F)F)nc(N5C[C@H]6CC[C@@H](C5)N6)c34)c12 [Ex-104, 2-(((1R)-1-(((4-((1R,5S)-3,8-diazabicyclo[3.2.1]octan-3-yl)-8-(5-ethynyl-6-fluoro-1H-benzo[f]indazol-4-yl)pyrido[4′,3′:4,5]thie-no[2,3-d]pyrimidin-2-yl)oxy)methyl)-2,2-difluorocyclopropyl)meth-yl)-6-oxa-2-azaspiro[3.4]octane]
12 | 0.0162 | 0.372 | 0.00162 | 0.215 | C#Cc1c(F)ccc2cc3[nH]ncc3c(-c3nccc4c3sc3nc(OC[C@@]56CCCN5C[C@@H](F)C6)nc(N5CC6CCC(C5)N6)c34)c12 [Ex-108, 4-(3,8-diazabicyclo[3.2.1]octan-3-yl)-8-(5-ethynyl-6-fluoro-1H-benzo[f]indazol-4-yl)-2-(((2S,7aS)-2-fluorotetrahydro-1H-pyrrolizin-7a(5H)-yl)methoxy)pyrido[4′, 3′:4,5]thieno[2,3-d]pyrimidine]
13 | 0.00852 | 0.0282 | 0.00206 | 0.0321 | C#Cc1csc2cc3[nH]ncc3c(-c3nccc4c3sc3nc(OC[C@@]56CCCN5C/C(=C\F)C6)nc(N5C[C@H]6CC[C@@H](C5)N6)c34)c12 [Ex-85, 4-((1R,5S)-3,8-diazabicyclo[3.2.1]octan-3-yl)-8-(5-ethynyl-1H-thieno[3,2-f]indazol-4-yl)-2-(((S,Z)-2-(fluoromethylene)tetrahydro-1H-pyrrolizin-7a(5H)-yl)methoxy)pyrido[4′,3′:4,5]thieno[2,3-d]pyrimidine]
